Measurements: US10213415B2, “Compounds as opioid receptor modulators” (JANSSEN PHARMACEUTICA NV, priority 2004, dated 2019)

Tests used:
[1] = target: T1, human delta subtype 2 opioid receptor (Homo sapiens, UniProt P41143); assay: Human Delta Opioid Receptor Binding Assay (CHO membranes, 3H-Naltrindole); details: read-out: hKi δ
T1 construct: purchased Perkin Elmer RBHODM400UA; host or cells: Chinese Hamster Ovary cells (recombinant expression)
Description: This assay is designed to test the ability of a compound to interfere with the binding of tritiated Naltrindole to the human delta subtype 2 opioid receptor. Membranes from Chinese Hamster Ovary cells expressing the human delta subtype 2 opioid receptor (Perkin Elmer #RBHODM400UA) are homogenized in assay buffer (50 mM Tris, pH 7.5 with 5 mM MgCl2) using a glass tissue grinder, Teflon pestle and a Steadfast Stirrer (Fisher Scientific). The concentration of membranes is adjusted to 100 μg/mL in assay buffer and 100 μL is dispensed into each well of the assay plate, a 96 well round bottom polypropylene plate. Compounds to be tested are solubilized in DMSO (Pierce), 10 mM, then diluted in assay buffer to 6× the desired final concentration. The ligand, ^3H-Naltrindole (Perkin Elmer #NET-1065) is also diluted in assay buffer to 6 nM. In a second 96 well round bottom polypropylene plate, known as the premix plate, 60 μL of the 6× compound is combined with 60 μL of 6 nM ^3H-Naltrindole. From this premix plate 50 μL is transferred to the assay plate containing the membranes, in duplicate. The assay plate is incubated for 30 min at room temperature. A GF/C 96 well filter plate (Perkin Elmer #6005174) is pretreated with 0.3% polyethylenimine for 30 min. The contents of the assay plate are filtered through the filter plate using a Packard Filtermate Harvester, and washed 3 times with 0.9% saline that is 4° C. The filter plate is dried, the underside sealed, and 30 μL Microscint20 (Packard #6013621) added to each well. A Topcount-NXT Microplate Scintillation Counter (Packard) is used to measure emitted energies in the range of 2.9 to 35 KeV. Results are compared to maximum binding, wells receiving no inhibitors. Nonspecific binding is determined in the presence of 1 μM unlabelled Naltrindole (Sigma #N115).

[2] = target: T2, human mu opioid receptor (Homo sapiens, UniProt P35372); assay: Human Mu Opioid Receptor Binding Assay (CHO membranes, 3H-Damgo); details: read-out: hKi μ
T2 construct: purchased Perkin Elmer RBHOMM400UA; host or cells: Chinese Hamster Ovary cells (recombinant expression)
Description: Membranes from Chinese Hamster Ovary cells expressing the human […] opioid receptor (Perkin Elmer #RBHOMM400UA) are homogenized in assay buffer (50 mM Tris, pH 7.5 with 5 mM MgCl2) using a glass tissue grinder, Teflon pestle and a Steadfast Stirrer (Fisher Scientific). The concentration of membranes is adjusted to 300 μg/mL in assay buffer and 100 μL is dispensed into each well of the assay plate, a 96 well round bottom polypropylene plate. Compounds to be tested are solubilized in DMSO (Pierce), 10 mM, then diluted in assay buffer to 6× the desired final concentration. The ligand, ^3H-Damgo (Perkin Elmer #NET-902) is also diluted in assay buffer to 3.6 nM. In a second 96 well round bottom polypropylene plate, known as the premix plate, 60 μL of the 6× compound is combined with 60 μL of 3.6 nM ^3H-Damgo. From this premix plate 50 μL is transferred to the assay plate containing the membranes, in duplicate. The assay plate is incubated for 2 h at room temperature. A GF/C 96 well filter plate (Perkin Elmer #6005174) is pretreated with 0.3% polyethylenimine for 30 min. The contents of the assay plate are filtered through the filter plate using a Packard Filtermate Harvester, and washed 3 times with 0.9% saline that is 4° C. The filter plate is dried, the underside sealed, and 30 μL Microscint20 (Packard #6013621) added to each well. A Topcount-NXT Microplate Scintillation Counter (Packard) is used to measure emitted energies in the range of 2.9 to 35 KeV. […] Nonspecific binding is determined in the presence of 1 μM unlabelled Damgo (Tocris #1171).

T1 sequence (P41143 whole entry): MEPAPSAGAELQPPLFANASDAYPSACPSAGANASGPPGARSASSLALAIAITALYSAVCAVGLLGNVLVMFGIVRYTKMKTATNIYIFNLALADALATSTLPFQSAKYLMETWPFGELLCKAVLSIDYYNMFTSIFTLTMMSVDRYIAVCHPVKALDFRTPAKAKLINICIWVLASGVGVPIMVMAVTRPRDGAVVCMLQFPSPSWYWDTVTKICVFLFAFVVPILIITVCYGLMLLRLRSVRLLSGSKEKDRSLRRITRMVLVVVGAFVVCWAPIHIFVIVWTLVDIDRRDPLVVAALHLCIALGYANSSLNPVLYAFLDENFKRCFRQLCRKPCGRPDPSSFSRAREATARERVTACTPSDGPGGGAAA
T2 sequence (P35372 whole entry): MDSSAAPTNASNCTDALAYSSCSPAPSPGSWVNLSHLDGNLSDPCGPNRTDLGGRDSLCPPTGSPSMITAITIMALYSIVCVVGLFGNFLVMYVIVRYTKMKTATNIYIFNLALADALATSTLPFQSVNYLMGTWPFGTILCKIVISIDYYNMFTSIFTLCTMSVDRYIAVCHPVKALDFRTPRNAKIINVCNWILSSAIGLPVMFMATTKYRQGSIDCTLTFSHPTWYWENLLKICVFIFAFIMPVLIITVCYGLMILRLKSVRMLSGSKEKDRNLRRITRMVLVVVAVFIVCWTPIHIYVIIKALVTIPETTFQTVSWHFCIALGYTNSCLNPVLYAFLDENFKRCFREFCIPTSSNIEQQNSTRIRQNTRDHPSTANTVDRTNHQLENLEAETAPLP

Row | SMILES | Ki [1] [nM] | Ki [2] [nM]
1 | Cc1cc(O)cc(C)c1C[C@H](N)C(=O)N(Cc1ccco1)[C@@H](C)c1nc(-c2ccccc2)c[nH]1 [Cpd 54] | 172 | 1.1
2 | Cc1cc(O)cc(C)c1C[C@H](N)C(=O)N(Cc1cccc2ccccc12)[C@@H](C)c1nc(-c2ccccc2)c[nH]1 [Cpd 99] | 19.3 | 16
3 | Cc1cc(O)cc(C)c1C[C@H](N)C(=O)N(Cc1nc(-c2cccc(F)c2)c(C)[nH]1)C(C)C [Cpd 116] | 30.3 | 0.54
4 | Cc1cc(O)cc(C)c1C[C@H](N)C(=O)N(Cc1nc(-c2cc(F)cc(F)c2)c(C)[nH]1)C(C)C [Cpd 126] | 164 | 7.8
5 | Cc1cc(O)cc(C)c1C[C@H](N)C(=O)N(Cc1nc(-c2cccc(C(=O)N(C)C)c2)c(C)[nH]1)C(C)C [Cpd 67] | 438 | 4.5
6 | Cc1cc(O)cc(C)c1C[C@H](N)C(=O)N(Cc1nc(-c2cc(Cl)cc(Cl)c2)c(C)[nH]1)C(C)C [Cpd 141] | 252 | 52
7 | Cc1cc(O)cc(C)c1C[C@H](N)C(=O)N(Cc1nc(-c2ccccc2-c2ccccc2)c(C)[nH]1)C(C)C [Cpd 145] | 267 | –
8 | Cc1cc(O)cc(C)c1C[C@H](N)C(=O)N(Cc1ccc(O)cc1)[C@@H](C)c1nc(-c2ccccc2)c[nH]1 [Cpd 81] | 15.7 | 1.7
9 | COc1ccccc1-c1nc(CN(C(=O)[C@@H](N)Cc2c(C)cc(O)cc2C)C(C)C)[nH]c1C [Cpd 135] | 1040 | 7
10 | Cc1cc(O)cc(C)c1C[C@H](N)C(=O)N(Cc1nc(-c2cccc(S(C)(=O)=O)c2)c(C)[nH]1)C(C)C [Cpd 72] | 71 | 1.03
11 | COC(=O)c1cccc(CN(C(=O)[C@@H](N)Cc2c(C)cc(O)cc2C)[C@@H](C)c2nc(-c3ccccc3)c[nH]2)c1 [Cpd 52] | 66 | 12.1
12 | Cc1[nH]c(CN(C(=O)[C@@H](N)Cc2ccc(O)cc2)C(C)C)nc1-c1ccccc1 [Cpd 154] | > 10000 | 1
13 | Cc1cc(O)cc(C)c1C[C@H](N)C(=O)N(Cc1nc(-c2ccc(C(N)=O)cc2)c(C)[nH]1)C(C)C [Cpd 69] | 272 | 4.4
14 | Cc1cc(C(N)=O)cc(C)c1C[C@H](N)C(=O)N(C1CCCCC1)[C@@H](C)c1nc(-c2ccccc2)c[nH]1 [Cpd 127] | 710 | 47
15 | Cc1cc(O)cc(C)c1C[C@H](N)C(=O)N(CC1CCN(C(=O)OCc2ccccc2)CC1)[C@@H](C)c1nc(-c2ccccc2)c[nH]1 [Cpd 53] | 96 | 13.1
16 | Cc1[nH]c(CN(C(=O)[C@@H](N)Cc2ccc(O)cc2)C(C)C)nc1-c1ccsc1 [Cpd 152] | > 10000 | –
17 | CC(C)N(C(=O)[C@@H](N)Cc1cccc(C#N)c1)[C@@H](Cc1ccccc1)c1nc(-c2ccccc2)c[nH]1 [Cpd 157] | > 10000 | 2.2
18 | Cc1cc(O)cc(C)c1C[C@H](N)C(=O)N(Cc1nc(-c2ccc(C(=O)O)cc2)c(C)[nH]1)C(C)C [Cpd 123] | 84 | 47
19 | Cc1cc(O)cc(C)c1C[C@H](N)C(=O)N(C(C)C)[C@@H](Cc1cccc(C(N)=O)c1)c1nc(-c2ccccc2)c[nH]1 [Cpd 121] | 182 | 25.3
20 | CC(C)[C@@H](c1nc(-c2ccccc2)c[nH]1)N(C(=O)[C@@H](N)Cc1ccc(O)cc1)C(C)C [Cpd 161] | > 10000 | > 1000
21 | CC(C)N(C(=O)[C@@H](N)Cc1cccc(C(N)=O)c1)[C@@H](Cc1ccccc1)c1nc(-c2ccccc2)c[nH]1 [Cpd 136] | 1610 | 726
22 | COc1cccc(-c2nc(CN(C(=O)[C@@H](N)Cc3c(C)cc(O)cc3C)C(C)C)[nH]c2C)c1 [Cpd 142] | 454 | 8.2
23 | Cc1cc(O)cc(C)c1C[C@H](N)C(=O)N(Cc1ccccc1)[C@@H](Cc1ccccc1)c1nc(-c2ccccc2)c[nH]1 [Cpd 105] | 742 | 410

Row | SMILES | Ki [1] [nM] | Ki [2] [nM]
24 | Cc1cc(O)cc(C)c1C[C@H](N)C(=O)N(Cc1ccc(N(C)C)cc1)[C@@H](C)c1nc(-c2ccccc2)cn1C [Cpd 77] | 13.5 | 1.8
25 | Cc1cc(O)cc(C)c1CC(N)C(=O)Oc1cc(C)c(C[C@H](N)C(=O)N(C(C)C)[C@@H](CC(C)C)c2nc(-c3ccccc3)c[nH]2)c(C)c1 (stereo partly drawn) [Cpd 139] | 1260 | 58
26 | Cc1cc(O)cc(C)c1C[C@H](N)C(=O)N(Cc1ccccc1)[C@H](c1nc(-c2ccccc2)c[nH]1)C(C)C [Cpd 106] | 279 | 150
27 | Cc1cc(O)cc(C)c1C[C@H](N)C(=O)N(Cc1ccccc1)[C@@H](CC(C)C)c1nc(-c2ccccc2)c[nH]1 [Cpd 104] | 484 | 100
28 | Cc1cc(O)cc(C)c1C[C@H](N)C(=O)N(Cc1nc(-c2ccc(F)cc2F)c(C)[nH]1)C(C)C [Cpd 71] | 102 | 0.57
29 | Cc1cc(O)cc(C)c1C[C@H](N)C(=O)N(CC1CCCCC1)[C@@H](C)c1nc(-c2ccccc2)c[nH]1 [Cpd 56] | 225 | 65.3
30 | Cc1cc(O)cc(C)c1C[C@H](N)C(=O)N(C(C)C)[C@@H](COCc1ccccc1)c1nc(-c2ccccc2)c[nH]1 [Cpd 138] | 1180 | 104
31 | Cc1cc(C(N)=O)cc(C)c1C[C@H](N)C(=O)N(CCc1ccccc1)[C@@H](C)c1nc(-c2ccccc2)c[nH]1 [Cpd 109] | 77 | 8.2
32 | Cc1cc(O)cc(C)c1C[C@H](N)C(=O)N[C@@H](CO)c1nc(-c2ccccc2)c[nH]1 [Cpd 119] | > 10000 | 185
33 | Cc1cc(O)cc(C)c1C[C@H](N)C(=O)N(C(C)C)[C@@H](Cc1ccccc1)c1nc(-c2ccccc2)c[nH]1 [Cpd 159] | 400 | 8.6
34 | Cc1cc(O)cc(C)c1C[C@H](N)C(=O)N(Cc1nc(-c2cccc(-c3ccccc3)c2)c(C)[nH]1)C(C)C [Cpd 134] | 463 | 121
35 | CC(C)[C@@H](c1nc(-c2ccccc2)c[nH]1)N(C(=O)[C@@H](N)Cc1cccc(C#N)c1)C(C)C [Cpd 160] | > 10000 | > 1000
36 | Cc1cc(C(N)=O)cc(C)c1C[C@H](N)C(=O)N(CCCc1ccccc1)[C@@H](C)c1nc(-c2ccccc2)c[nH]1 [Cpd 108] | 43.3 | 23.5
37 | Cc1cc(C(N)=O)cc(C)c1C[C@H](N)C(=O)N(Cc1ccccc1)[C@@H](COCc1ccccc1)c1nc(-c2ccccc2)c[nH]1 [Cpd 64] | 1110 | 117
38 | Cc1cc(O)cc(C)c1C[C@H](N)C(=O)N(C(C)C)[C@H](CO)c1nc(-c2ccccc2)c[nH]1 [Cpd 63] | 473 | 58
39 | Cc1cc(O)cc(C)c1C[C@H](N)C(=O)N(Cc1nc(-c2cccc(C#N)c2)c(C)[nH]1)C(C)C [Cpd 60] | 114 | 2
40 | Cc1cc(O)cc(C)c1C[C@H](N)C(=O)N(C(C)C)[C@H](C)c1nc(-c2ccc(F)cc2)c[nH]1 [Cpd 82] | 46 | 2.39
41 | Cc1cc(O)cc(C)c1C[C@H](N)C(=O)N(Cc1ccc2ccccc2c1)[C@@H](C)c1nc(-c2ccccc2)c[nH]1 [Cpd 100] | 88 | 20
42 | Cc1cc(C(N)=O)cc(C)c1C[C@H](N)C(=O)N(Cc1ccccc1)[C@@H](C)c1nc(-c2ccc(C(F)(F)F)cc2)c(C)[nH]1 [Cpd 74] | 63 | 9.8
43 | Cc1[nH]c(CN(C(=O)[C@@H](N)Cc2ccc(O)cc2)C(C)C)nc1-c1cccnc1 [Cpd 153] | > 10000 | –
44 | Cc1cc(O)cc(C)c1C[C@H](N)C(=O)N(Cc1nc(-c2cccnc2)c(C)[nH]1)C(C)C [Cpd 124] | 1280 | 1.7
45 | Cc1cc(O)cc(C)c1C[C@H](N)C(=O)N(Cc1nc(-c2ccc(N(C)C)cc2)c(C)[nH]1)C(C)C [Cpd 66] | 550 | 6.5
